Source: US7087634B2, “Cyclic AMP-specific phosphodiesterase inhibitors” (ICOS Corporation, priority 1999, dated 2006)

Tests used:
PDE1B = target: T1, PDE1B (Homo sapiens, UniProt Q01064); test: Inhibition of PDE1B; type: biochemical
T1 construct: made in house; host or cells: Saccharomyces cerevisiae BJ2-54

PDE2 = target: T2, PDE2 (Homo sapiens, UniProt O00408); test: Inhibition of PDE2; type: biochemical
T2 construct: made in house; host or cells: Saccharomyces cerevisiae strain YI34
Method: (§1) Recombinant production of human PDE1B, PDE2, PDE4A, PDE4B, PDE4C, PDE4D, PDE5, and PDE7 was carried out similarly to that described in Example 7 of U.S. Pat. No. 5,702,936, incorporated herein by reference, except that the yeast transformation vector employed, which is derived from the basic ADH2 plasmid described in Price et al., Methods in Enzymology, 185, pp. 308–318 (1990), incorporated yeast ADH2 promoter and terminator sequences and the Saccharomyces cerevisiae host was the protease-deficient strain BJ2–54 deposited on Aug. 31, 1998 with the American Type Culture Collection, Manassas, Va., under accession number ATCC 74465. Transformed host cells were grown in 2×SC-leu medium, pH 6.2, with trace metals, and vitamins. After 24 hours, YEP medium-containing glycerol was added to a final concentration of 2×YET/3% glycerol. […]
(§2) Phosphodiesterase activity of the preparations was determined as follows. […] The [32P]5′-AMP or [32P]5′-GMP then was quantitatively converted to free [32P]phosphate and unlabeled adenosine or guanosine by the action of snake venom 5′-nucleotidase. […] PDE enzyme was present in quantities that yield <30% total hydrolysis of substrate (linear assay conditions). […] After centrifugation (750×g for 3 minutes) to sediment the charcoal, a sample of the supernatant was taken for radioactivity determination in a scintillation counter and the PDE activity was calculated. […]

PDE3A = target: T3, PDE3A (Homo sapiens, UniProt Q14432); test: Inhibition of PDE3A; type: biochemical
T3 construct: Plasmid pBB-PDE3A contained the complete open reading frame of PDE3A; made in house; host or cells: Sf9 (baculovirus)

PDE7 = target: T4, PDE7 (Homo sapiens, UniProt Q13946); test: Inhibition of PDE7; type: biochemical
T4 construct: made in house; host or cells: Saccharomyces cerevisiae BJ2-54
Method: as §1, §2

serum TNFα = test: Combined mouse endotoxin-stimulated TNFα release assay (serum TNFα); type: in vivo; details: female Balb/c mice, i.p., LPS model
Method: The purpose of this study was to determine the efficacy of PDE4 inhibitors in vivo in an LPS mouse model together with a determination with respect to central nervous system (CNS) side-effects manifested by a decrease in spontaneous mobility.
The test animals were female Balb/c mice, having an average weight of about 20 g. The PDE4 inhibitors, formulated in 30% Cremophor® EL, were administered via intraperitoneal (i.p.) injections at doses of 0.1, 1.0, 10.0, and 100 mg/kg. Individual dose volumes (about 150 μL) were adjusted based on the body weights measured. One hour later, 5 mg/kg LPS in a final volume of 200 μL was injected via the tail vein to each animal. Ninety minutes following the LPS treatment, the animals were bled and serum samples were collected before being stored at −70° C. until assayed.
For efficacy determination, the serum samples were diluted two-fold and TNFα levels were determined using the CYTOSCREEN® Immunoassay Kit (Biosource International). The data were averaged between triplicate sample subjects for each of the tested compounds.

T3 sequence (Q14432 whole entry): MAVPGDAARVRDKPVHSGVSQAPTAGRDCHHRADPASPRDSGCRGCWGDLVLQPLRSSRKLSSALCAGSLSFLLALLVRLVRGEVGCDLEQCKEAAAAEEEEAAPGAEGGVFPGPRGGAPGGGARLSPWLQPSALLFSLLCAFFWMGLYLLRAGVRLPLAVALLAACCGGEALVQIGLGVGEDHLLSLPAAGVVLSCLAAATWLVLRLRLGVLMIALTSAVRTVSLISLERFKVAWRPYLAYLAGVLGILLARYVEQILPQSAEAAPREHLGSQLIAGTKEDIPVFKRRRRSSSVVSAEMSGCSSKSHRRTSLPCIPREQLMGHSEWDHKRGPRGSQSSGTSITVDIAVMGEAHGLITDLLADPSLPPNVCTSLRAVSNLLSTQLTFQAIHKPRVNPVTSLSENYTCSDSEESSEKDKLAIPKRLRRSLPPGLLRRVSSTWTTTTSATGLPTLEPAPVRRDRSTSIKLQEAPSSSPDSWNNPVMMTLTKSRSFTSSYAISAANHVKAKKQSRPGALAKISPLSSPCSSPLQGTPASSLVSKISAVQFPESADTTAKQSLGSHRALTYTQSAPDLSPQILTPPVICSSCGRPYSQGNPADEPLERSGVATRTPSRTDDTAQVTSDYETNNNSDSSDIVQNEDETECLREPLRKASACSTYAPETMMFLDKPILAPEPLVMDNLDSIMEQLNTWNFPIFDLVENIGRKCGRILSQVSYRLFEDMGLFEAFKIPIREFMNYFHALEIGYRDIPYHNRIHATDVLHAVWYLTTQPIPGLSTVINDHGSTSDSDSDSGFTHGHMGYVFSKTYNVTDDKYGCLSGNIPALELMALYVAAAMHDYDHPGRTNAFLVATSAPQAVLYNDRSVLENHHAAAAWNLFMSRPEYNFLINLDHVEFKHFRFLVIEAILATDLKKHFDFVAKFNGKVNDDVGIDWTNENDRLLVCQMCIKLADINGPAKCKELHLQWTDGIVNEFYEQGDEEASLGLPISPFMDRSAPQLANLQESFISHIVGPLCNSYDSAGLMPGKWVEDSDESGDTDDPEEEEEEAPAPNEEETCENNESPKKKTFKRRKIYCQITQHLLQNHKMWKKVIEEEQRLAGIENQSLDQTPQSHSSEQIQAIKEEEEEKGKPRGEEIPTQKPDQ
T4 sequence (Q13946 whole entry): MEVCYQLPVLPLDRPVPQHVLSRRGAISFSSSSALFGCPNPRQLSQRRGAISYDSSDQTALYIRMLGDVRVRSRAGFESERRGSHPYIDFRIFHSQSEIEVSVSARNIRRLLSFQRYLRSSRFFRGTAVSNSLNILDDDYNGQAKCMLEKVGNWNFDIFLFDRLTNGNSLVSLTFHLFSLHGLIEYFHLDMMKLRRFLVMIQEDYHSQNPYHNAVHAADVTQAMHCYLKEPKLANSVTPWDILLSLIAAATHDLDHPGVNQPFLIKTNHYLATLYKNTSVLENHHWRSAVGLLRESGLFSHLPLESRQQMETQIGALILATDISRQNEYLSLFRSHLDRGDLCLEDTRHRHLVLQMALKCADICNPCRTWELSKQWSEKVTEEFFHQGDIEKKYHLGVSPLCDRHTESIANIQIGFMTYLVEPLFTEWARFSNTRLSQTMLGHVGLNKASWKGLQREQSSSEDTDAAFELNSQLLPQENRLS
T2 sequence (O00408 whole entry): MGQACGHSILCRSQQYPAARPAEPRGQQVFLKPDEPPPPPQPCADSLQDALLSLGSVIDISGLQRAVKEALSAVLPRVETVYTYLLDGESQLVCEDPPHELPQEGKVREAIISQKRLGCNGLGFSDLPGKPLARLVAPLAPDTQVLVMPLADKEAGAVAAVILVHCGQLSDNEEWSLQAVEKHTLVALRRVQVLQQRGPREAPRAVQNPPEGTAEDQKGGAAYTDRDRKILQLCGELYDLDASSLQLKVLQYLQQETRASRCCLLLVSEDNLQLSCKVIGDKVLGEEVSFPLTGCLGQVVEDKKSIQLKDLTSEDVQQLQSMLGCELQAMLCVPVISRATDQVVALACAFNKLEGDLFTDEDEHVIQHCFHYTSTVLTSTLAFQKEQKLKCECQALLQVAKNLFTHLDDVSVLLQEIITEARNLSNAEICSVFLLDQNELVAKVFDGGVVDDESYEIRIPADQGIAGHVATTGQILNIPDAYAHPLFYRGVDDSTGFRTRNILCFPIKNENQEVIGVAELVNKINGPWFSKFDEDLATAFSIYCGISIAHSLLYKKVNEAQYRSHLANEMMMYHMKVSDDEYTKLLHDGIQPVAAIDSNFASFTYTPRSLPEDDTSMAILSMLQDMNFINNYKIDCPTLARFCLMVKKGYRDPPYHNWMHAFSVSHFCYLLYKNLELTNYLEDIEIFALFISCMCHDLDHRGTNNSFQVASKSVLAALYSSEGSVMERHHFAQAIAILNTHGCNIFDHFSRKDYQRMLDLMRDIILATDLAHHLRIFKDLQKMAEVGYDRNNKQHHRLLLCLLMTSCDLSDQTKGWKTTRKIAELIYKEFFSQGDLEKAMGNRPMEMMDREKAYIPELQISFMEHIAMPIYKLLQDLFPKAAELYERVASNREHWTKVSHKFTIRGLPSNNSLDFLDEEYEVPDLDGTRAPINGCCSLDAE

## CCOC(=O)c1c(C)nn(-c2cccc([N+](=O)[O-])c2)c1C [Example 2, 3,5-dimethyl-1-(3-nitrophenyl)-1H-pyrazole-4-carboxylic acid ethyl ester]
PDE1B
  IC50: 25.7 µM
PDE2
  IC50: 21.8 µM
PDE3A
  IC50: 137 µM
PDE7
  IC50: 39 µM
Serum TNFα; 10 mg/kg
  % TNFQ Inhibition: 70%
Serum TNFα; 100 mg/kg
  % TNFQ Inhibition: 100%
